In ChEMBL document CHEMBL3085750, “Discovery of 2-methylpyridine-based biaryl amides as γ-secretase modulators for the treatment of Alzheimer's disease” (Bioorg Med Chem Lett, 2013):
Activity calls are given as the source filed them. The calls are words filed in the database; no cut-off is given here.

How the values were obtained:
[1] = Clearance in cynomolgus monkey at 2 mg/kg, iv; format: ADME, organism-based, Macaca fascicularis; design: dose 2 mg/kg, route intravenous; conditions: in vivo
Gamma-secretase [2] = test: Modulation of gamma-secretase in HEK293 cells expressing guinea pig Swedish mutant SFV-APP695sw coexpressing DLL4 assessed as inhibition of notch processing in human TE671 cells after 3 days by dual-cell luciferase reporter gene assay; format: cell-based
[3] = Oral bioavailability in rat at 5 mg/kg; format: ADME, organism-based; conditions: in vivo
Cytochrome P450 3A4 = Cytochrome P450 3A4 (Homo sapiens, UniProt P08684); test: Inhibition of CYP3A4 (unknown origin) after 5 mins; format: ADME
Sequence of Cytochrome P450 3A4 (P08684 whole entry): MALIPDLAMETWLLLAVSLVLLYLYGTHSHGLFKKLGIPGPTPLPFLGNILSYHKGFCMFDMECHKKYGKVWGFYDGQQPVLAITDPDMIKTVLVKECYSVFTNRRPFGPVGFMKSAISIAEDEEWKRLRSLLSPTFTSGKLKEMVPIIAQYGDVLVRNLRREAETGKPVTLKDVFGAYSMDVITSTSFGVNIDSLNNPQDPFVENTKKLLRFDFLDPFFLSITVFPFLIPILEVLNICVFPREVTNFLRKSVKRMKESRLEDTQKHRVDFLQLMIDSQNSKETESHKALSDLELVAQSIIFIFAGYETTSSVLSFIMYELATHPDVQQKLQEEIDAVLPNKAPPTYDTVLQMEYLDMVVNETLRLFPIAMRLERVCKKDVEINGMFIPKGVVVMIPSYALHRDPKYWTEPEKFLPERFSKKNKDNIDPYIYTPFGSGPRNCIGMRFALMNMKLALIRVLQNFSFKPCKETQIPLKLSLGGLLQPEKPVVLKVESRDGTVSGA

Rattus norvegicus [4] = test: Reduction of amyloid beta-42 level in Sprague-Dawley rat CSF at 30 mg/kg, po after 24 hrs by immunoassay relative to control; format: functional; design: scale not given: the % may be the effect or the level left
Brain = test: Drug uptake in Sprague-Dawley rat brain at 100 mg/kg, po after 4 to 36 hrs by LC/MS analysis; format: ADME, organism-based; design: dose 100 mg/kg, route oral; conditions: in vivo
[5] = Oral bioavailability in cynomolgus monkey at 5 mg/kg; format: ADME, organism-based, Macaca fascicularis; conditions: in vivo
Rattus norvegicus [6] = test: Toxicity in Sprague-Dawley rat assessed as histopathological changes at 30 to 300 mg/kg, po after 4 days by light microscopic analysis; format: organism-based; design: dose 30-300 mg/kg, route oral; conditions: in vivo, 96 h
[7] = Half life in rat at 2 mg/kg, iv; format: ADME, organism-based; design: dose 2 mg/kg, route intravenous; conditions: in vivo
Cytochrome P450 2D6 = Cytochrome P450 2D6 (Homo sapiens, UniProt P10635); test: Inhibition of CYP2D6 (unknown origin) after 10 mins; format: ADME
Sequence of Cytochrome P450 2D6 (P10635 whole entry): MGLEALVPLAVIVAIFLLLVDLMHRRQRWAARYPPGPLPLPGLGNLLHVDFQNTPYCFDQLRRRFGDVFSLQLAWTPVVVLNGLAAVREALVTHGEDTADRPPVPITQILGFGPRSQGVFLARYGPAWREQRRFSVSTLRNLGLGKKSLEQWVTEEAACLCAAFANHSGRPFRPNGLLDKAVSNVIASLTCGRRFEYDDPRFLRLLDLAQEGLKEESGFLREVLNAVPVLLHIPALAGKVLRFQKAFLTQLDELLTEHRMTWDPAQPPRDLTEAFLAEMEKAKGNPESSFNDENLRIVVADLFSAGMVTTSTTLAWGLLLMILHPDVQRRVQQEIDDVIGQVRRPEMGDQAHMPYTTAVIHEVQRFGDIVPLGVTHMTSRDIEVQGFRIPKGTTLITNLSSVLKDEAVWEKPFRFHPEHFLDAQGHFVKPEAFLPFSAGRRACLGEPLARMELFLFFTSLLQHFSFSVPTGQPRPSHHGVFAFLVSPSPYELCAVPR

Rattus norvegicus [8] = test: Reduction of amyloid beta-42 level in Sprague-Dawley rat CSF at 100 mg/kg, po after 4 hrs by immunoassay relative to control; format: functional; design: scale not given: the % may be the effect or the level left
Rattus norvegicus [9] = test: Reduction of amyloid beta-42 level in Sprague-Dawley rat CSF at 100 mg/kg, po after 24 hrs by immunoassay relative to control; format: functional; design: scale not given: the % may be the effect or the level left
Rattus norvegicus [10] = test: Reduction of amyloid beta-40 level in Sprague-Dawley rat CSF at 100 mg/kg, po after 4 hrs by immunoassay; format: functional, organism-based; design: dose 100 mg/kg
[11] = Volume of distribution at steady state in cynomolgus monkey at 2 mg/kg, iv; format: ADME, organism-based, Macaca fascicularis; design: dose 2 mg/kg, route intravenous; conditions: in vivo, read-out: Vdss
Gamma-secretase [12] = test: Modulation of gamma-secretase in HEK293 cells expressing guinea pig Swedish mutant SFV-APP695sw assessed as inhibition of amyloid beta-40 production after 16 to 18 hrs by HTRF assay; format: cell-based, Homo sapiens
[13] = Efflux ratio of apparent permeability in pig LLC-PK1 cells; format: ADME, cell-based, Sus scrofa
Rattus norvegicus [14] = test: Toxicity in Sprague-Dawley rat assessed as notch-associated effects at 30 to 300 mg/kg, po after 4 days by light microscopic analysis; format: organism-based; design: dose 30-300 mg/kg, route oral; conditions: in vivo, 96 h
Rattus norvegicus [15] = test: Reduction of amyloid beta-42 level in Sprague-Dawley rat CSF at 300 mg/kg, po after 24 hrs by immunoassay relative to control; format: functional; design: scale not given: the % may be the effect or the level left
[16] = Volume of distribution at steady state in rat at 2 mg/kg, iv; format: ADME, organism-based; design: dose 2 mg/kg, route intravenous; conditions: in vivo, read-out: Vdss
Rattus norvegicus [17] = test: Reduction of amyloid beta level in Sprague-Dawley rat CSF at 100 mg/kg, po after 36 hrs by immunoassay; format: functional, organism-based; design: dose 100 mg/kg
[18] = Metabolic stability in human liver microsomes at 1 uM after 30 mins; format: ADME; conditions: read-out: Stability
Plasma [19] = test: Unbound plasma concentration in Sprague-Dawley rat at 300 mg/kg; format: ADME, organism-based; design: dose 300 mg/kg; conditions: in vivo
[20] = Half life in cynomolgus monkey at 2 mg/kg, iv; format: ADME, organism-based, Macaca fascicularis; design: dose 2 mg/kg, route intravenous; conditions: in vivo
[21] = Ratio of drug level in brain to plasma in Sprague-Dawley rat; format: ADME, cell-free; conditions: read-out: BPR
Rattus norvegicus [22] = test: Reduction of amyloid beta-42 level in Sprague-Dawley rat brain at 100 mg/kg, po after 4 hrs by immunoassay relative to control; format: functional; design: scale not given: the % may be the effect or the level left
Gamma-secretase [23] = test: Modulation of gamma-secretase in HEK293 cells expressing guinea pig Swedish mutant SFV-APP695sw assessed as inhibition of amyloid beta-42 production after 16 to 18 hrs by HTRF assay; format: cell-based, Homo sapiens
[24] = Apparent permeability in pig LLC-PK1 cells; format: ADME, cell-based, Sus scrofa
[25] = Metabolic stability in rat liver microsomes at 1 uM after 30 mins; format: ADME; conditions: read-out: Stability
Rattus norvegicus [26] = test: Reduction of amyloid beta-40 level in Sprague-Dawley rat brain at 100 mg/kg, po after 4 hrs by immunoassay; format: functional, organism-based; design: dose 100 mg/kg
Plasma [27] = test: Drug uptake in Sprague-Dawley rat plasma at 100 mg/kg, po after 4 to 36 hrs by LC/MS analysis; format: ADME, organism-based; design: dose 100 mg/kg, route oral; conditions: in vivo
[28] = target: Gamma-secretase (Homo sapiens) (UniProt Q96BI3+Q9NZ42+Q8WW43+P49768+Q92542+P49810); test: Selectivity ratio of IC50 for gamma-secretase-mediated notch processing in HEK293 cells by dual-cell luciferase reporter gene assay to IC50 for gamma-secretase-mediated amyloid beta-42 production in HEK293 cells by HTRF assay; format: cell-based
[29] = Ratio of unbound plasma concentration in Sprague-Dawley rat to gamma-secretase-mediated amyloid beta-42 production in HEK293 cells; format: ADME, cell-based
[30] = Clearance in rat at 2 mg/kg, iv; format: ADME, organism-based; design: dose 2 mg/kg, route intravenous; conditions: in vivo

Cc1cc(-c2ccc(NC(=O)[C@H](C)c3cc(C(F)(F)F)cc(C(F)(F)F)c3)cc2)ccn1
clearance [1]: 2.67 mL/min/kg
IC50 (Gamma-secretase [2]): 11.8 µM
bioavailability [3]: 100%
IC50 (Cytochrome P450 3A4): > 27 µM
Activity (Rattus norvegicus [4]): 32%
Drug uptake (Brain): Active
bioavailability [5]: 56%
Activity (Rattus norvegicus [6]): Non-toxic
half-life [7]: 6 h
IC50 (Cytochrome P450 2D6): 4.1 µM
Activity (Rattus norvegicus [8]): 41%
Activity (Rattus norvegicus [9]): 44%
Activity (Rattus norvegicus [10]): inactive
Vd [11]: 3.1 L/kg
IC50 (Gamma-secretase [12]): 3.1 µM
efflux ratio [13]: 1.2
Activity (Rattus norvegicus [14]): Non-toxic
Activity (Rattus norvegicus [15]): 55%
Vd [16]: 4.3 L/kg
Activity (Rattus norvegicus [17]): Active
microsomal CLint at 1 µM [18]: < 14 µL/min/mg
Cp(f) (Plasma [19]): 0.57 nM
half-life [20]: 15.9 h
Kp [21]: 2
Activity (Rattus norvegicus [22]): 33%
IC50 (Gamma-secretase [23]): 0.26 µM
Papp [24]: 7.8 ×10⁻⁶ cm/s
microsomal CLint at 1 µM [25]: < 14 µL/min/mg
Activity (Rattus norvegicus [26]): inactive
Drug uptake (Plasma [27]): Active
Ratio IC50 [28]: 45
Ratio [29]: 2
clearance [30]: 9.67 mL/min/kg
